Reference: US20160025704A1, “METHODS FOR IDENTIFYING NEUROPROTECTIVE PKC ACTIVATORS” (priority 2013, published 2016)
Like-named read-outs stand apart in the source and are kept apart here.

Columns and labels:
[1] = system: TA 100 cells & TA 1535 cells / TA 98 cells; assay: AMES testing, overall result (mutagenic potential); type: cell-based
Excerpt: The AMES test is a rapid screening of the mutagenic potential of chemical compounds. […] Between 50% and 70% of all known carcinogens test positive in the AMES test.

[2] = system: BDNF, NGF, NT-3, and GAP-43 mRNA; assay: NTF mRNA expression in primary hippocampal neurons treated with Aβ (real time PCR); type: cell-based, rat; settings: co-treated 24 hours or treated 12 hours after Aβ
Procedure: Protocol: Primary hippocampal neurons were treated with control buffer (Untreated), Aβ (1 μM, oligomeric form), or 0.5 nM bryostatin for 24 hours. Some cells were co-treated with Aβ plus 0.5 nM bryostatin (Bryo+Aβ) for 24 hours, or pre-treated with Aβ for 12 hours, washed out, and then treated with bryostatin for additional 12 hours (Aβ+Bryo). Cells were then lysed and total RNA was isolated. Relative expression change of BDNF, NGF, NT-3, and GAP-43 mRNA was quantitatively measured from real time PCR using specific primers against rat BDNF, NGF, NT-3, and GAP-43 mRNA (FIG. 14). A representative gel image is also shown below in FIG. 14 (Mean+SEM, *P<0.05, Aβ compared with untreated; #P<0.05, Bryo+Aβ or Aβ+Bryo compared with Aβ only).
Test A—DCPLA (500 nM): Primary hippocampal neurons were treated with control buffer (Untreated), Aβ (1 μM, oligomer), or 500 nM DCPLA for 24 hours. Some cells were pre-treated with Aβ for 12 hr and then treated with 500 nM DCPLA for 12 hours (Aβ+DCP-LA), or co-treated with Aβ plus 500 nM DCP-LA (DCP-LA+Aβ) for 24 hours. Total RNA was isolated and relative expression change of BDNF, NGF, NT-3, and GAP-43 mRNA was quantitatively measured from real time RT-PCR using specific primers against rat BDNF, NGF, NT-3, and GAP-43 mRNA (FIG. 15). A representative gel image is also shown below in FIG. 15 (Mean+SEM of three independent experiments, *P<0.05, Aβ compared with untreated; #P<0.05, Aβ+Bryo or Bryo+Aβ compared with Aβ only).
Test B—DCPLA-methyl ester (100 nM): Primary hippocampal neurons were treated with control buffer (Untreated), 1 μM Aβ, or 100 nM DCP-LA ME (the methyl ester form of DCP-LA) for 24 hours. Some cells were pre-treated with Aβ for 12 hr and then treated with 100 nM DCP-LA ME for 12 hours (Aβ+DCP-LA ME), or co-treated with Aβ plus […] (DCP-LA ME+Aβ) for 24 hours. Total RNA was isolated and relative expression change of BDNF, NGF, NT-3, and GAP-43 mRNA was quantitatively measured from real time RT-PCR using specific primers against rat BDNF, NGF, NT-3, and GAP-43 mRNA (FIG. 16). […]

ECE = ECE activity in SH-SY5Y cells (fluorometric); type: cell-based; settings: compared to ethanol alone
Procedure: Aβ can be degraded in vivo by a number of enzymes, including insulin degrading enzyme (insulysin), neprilysin, and ECE (FIG. 12). Because PKC-ε overexpression has been reported to activate ECE (Choi et al., Proc. Natl. Acad. Sci. USA. 2006; 103: 8215-20), the effect of PKC activators on ECE was analyzed. Candidate PKC activators were added to either SH-SY5Y cells (Bryo—0.27 nM, DCP-LA—1 μM, and DHA-CP6 1 μM) or cultured neurons (DHA-CP6—1 μM, EPA-CP5— 1 μM, and AA-CP4— 1 μM), and grown on either 12- or 24-well plates. After various time periods, the cells were collected and ECE activity was measured fluorometrically. Results are shown below in FIG. 13. *, p<0.05; **, p<0.001.
PKCε overexpression has been reported to activate endothelin converting enzyme (ECE). The effect of PKC activators on ECE was measured here with Bryostatin, DCP-LA, and DHA-CP6. […] Protocol: Bryostatin (0.27 nM), DCP-LA (1 μM), DHACP6 (1 μM), EPA-CP5 (1 μM), AA-CP4 (1 μM), or ethanol alone were added to SH-SYSY cells growing on 12- or 24-well plates. After various periods of time, the cells were collected and ECE activity was measured fluorometrically as showing in FIG. 34 below (* p<0.05, ** p<0.001).

PKC-ε = molecular target: T1, PKC-ε (Homo sapiens, UniProt Q02156); assay: Activation of purified PKC isozymes; type: biochemical
T1 sequence (Q02156 1-737): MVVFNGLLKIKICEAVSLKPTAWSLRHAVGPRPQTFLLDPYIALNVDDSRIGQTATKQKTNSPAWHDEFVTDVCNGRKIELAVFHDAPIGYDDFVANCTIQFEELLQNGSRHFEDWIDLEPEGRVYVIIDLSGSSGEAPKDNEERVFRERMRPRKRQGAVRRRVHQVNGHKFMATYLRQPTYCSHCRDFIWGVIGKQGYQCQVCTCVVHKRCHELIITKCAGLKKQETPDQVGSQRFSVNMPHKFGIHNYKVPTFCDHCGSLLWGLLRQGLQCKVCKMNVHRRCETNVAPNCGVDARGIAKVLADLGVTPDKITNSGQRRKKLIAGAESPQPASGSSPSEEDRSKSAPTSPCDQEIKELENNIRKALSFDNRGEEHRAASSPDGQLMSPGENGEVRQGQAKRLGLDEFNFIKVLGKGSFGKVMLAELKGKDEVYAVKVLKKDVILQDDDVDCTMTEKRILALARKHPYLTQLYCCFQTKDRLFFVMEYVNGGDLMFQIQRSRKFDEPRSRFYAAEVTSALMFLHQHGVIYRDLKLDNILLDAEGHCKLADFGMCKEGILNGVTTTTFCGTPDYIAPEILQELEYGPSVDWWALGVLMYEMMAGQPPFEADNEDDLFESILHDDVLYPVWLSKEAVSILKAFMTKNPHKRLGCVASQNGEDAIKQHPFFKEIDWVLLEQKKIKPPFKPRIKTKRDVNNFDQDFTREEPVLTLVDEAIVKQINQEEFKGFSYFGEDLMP
Procedure: Protocol: Purified PKC-α, βII, γ, δ, or ε (9 ng) was preincubated for 5 minutes at room temperature with the following PKC activators: (A) DHA-CP6, (B) EPA-CP5, (C) AA-CP4, (D) DCP-LA, (E) “other cyclopropaneated and epoxidized fatty acids, alcohols, and methyl esters.” followed by measurement of PKC activity as described under Experimental Procedures. Results are shown below in FIG. 6.

Which results are given for `CCC/C=C/C=C/C(=O)O[C@H]1/C(=C/C(=O)OC)C[C@H]2C[C@H]([C@@H](C)O)OC(=O)C[C@H](O)C[C@@H]3C[C@H](OC(C)=O)C(C)(C)[C@](O)(C[C@@H]4C/C(=C/C(=O)OC)C[C@H](/C=C/C(C)(C)[C@]1(O)O2)O4)O3` [Bryostatin, bryostatin-1]?
AMES testing result ([1]; summary of Tables 1-4): not mutagenic; NTF mRNA expression decreased by Aβ ([2]; 0.5 nM, Aβ 1 μM oligomeric): recovers NTF mRNA expression decreased by Aβ; ECE activity (ECE; 0.27 nM): sustained increase in ECE activity; ECE activity (ECE; 0.27 nM, listed as Bryo): increase in ECE activity; activation of α isoform versus ε isoform (PKC-ε; in vitro measurements with purified PKC isozymes): activates the α isoform and ε isoform equally

`CCCCCC1CC1CC1CC1CCCCCCCC(=O)O` (stereo not shown) [DCPLA, 8-[2-(2-pentylcyclopropyl)methyl]-cyclopropaneoctanoic acid] was tested. Which AMES testing result [1] did it give?
The AMES testing result was “not mutagenic”.

And the “Result (Mutagenic Potential)” value [1]?
Its value is “Result: Not mutagenic, p > 0.05”.

What about the “NTF mRNA expression decreased by Aβ” value ([2]; 500 nM, Aβ 1 μM oligomer) of the same compound?
Its value is “recovers NTF mRNA expression decreased by Aβ”.

What about the ECE activity (ECE; 1 μM) of the same compound?
Its ECE activity is “sustained increase in ECE activity”.

What about the “PKC-ε specificity versus PKC-α and PKC-δ” value (PKC-ε; purified PKC isozymes (9 ng), preincubated 5 minutes at room temperature) of the same compound?
Its value is “PKC-ε specificity ±15% PKC-α and PKC-δ”.
